Holding throughout (format): cell-based
Test [1] deals with human bone marrow-derived mesenchymal stem cells. The test is described as follows: Induction of differentiation to cartilaginous cells in three-dimensional culture (safranin O area). The note with it: for Differentiated cartilaginous cell area ratio: control = 1; for activity to induce differentiation to cartilaginous cells (in words): summary of Tables 4 to 11. As for the experimental part:
In accordance with Tissue Engineering, (US), 2010, 16 (1), p 81-91. DOI: 10.1089=ten.tec.2008.0693, mesenchymal stem cells were isolated from human normal bone marrow in a dedicated culture medium, and then the cells were grown. The grown cells were recovered, added with an equivalent amount of a cell freezing damage protection liquid CP-1 (KYOKUTO PHARMACEUTICAL INDUSTRIAL CO., LTD), and cryopreserved.
It is known that cartilaginous cells dedifferentiate in two-dimensional culture. As a culture system of cartilaginous cells closer to nature, a technique called three-dimensional culture is adopted. The thawed and grown human bone marrow-derived mesenchymal stem cells were dispensed into 15 mL tubes (made of TPP) by 2.5×10^5 cells, and centrifuged at 1000 rpm for 3 minutes at room temperature. The supernatant was removed and replaced with 0.5 mL of a culture medium to induce differentiation to cartilaginous cells in accordance with Document A. At the same time, as test substances, the garcinia extract, HCA·Ca, and/or the component (B) (components (B1) to (B4)) were added at the concentration shown in Tables 4 to 11. After cultured for 21 days, the cells were fixed in a 4% paraformaldehyde·phosphate buffer for 12 hours, dehydrated in 70% ethanol, and then embedded in paraffin, and then specimens were prepared. In the prepared specimen, the acidic polysaccharides as a cartilage matrix was stained with safranin O, and then the morphology of differentiated cartilaginous cells was observed using an optical microscope (magnification: 10 times). Furthermore, regarding the area showing a red color by safranin O staining, the relative area (differentiated cartilaginous cell area ratio) was calculated using an image analysis software Image J such that the control (Comparative Example 1) had the area of 1.
Except that the component (component (B4)) shown in Table 12 (a) and Table 12 (b) was used as the component (B), and the addition amount of the component (A) and the component (B) (component (B4)) was as shown in Table 12 (a) and Table 12 (b), the same procedure as in Test example 2 was carried out to calculate the differentiated cartilaginous cell area ratio and measure the amount of GAG. The results of the differentiated cartilaginous cell area ratio are shown in Table 12 (a) and Table 12 (b), and the measurement results of the amount of GAG are shown in FIG. 5.

Test [2] relates to Human iPS cell-derived mesenchymal stem cells. The test is described as follows: Differentiation to cartilaginous cells and cartilage matrix production in two-dimensional culture (Alcian blue). The note with it: Table 2a: garcinia extract or glucosamine (B4) alone; about 10 days culture; Alcian blue OD 620 nm; control = 1. From the text: In accordance with PLOS ONE, (US), 2014, 9 (12), e112291. DOI: 10.1371/journal.pone.0112291 (hereinafter, described as “Document A”), mesenchymal stem cells were induced from human normal iPS cells via neural crest cells, added with an equivalent amount of a cell freezing damage protection liquid CP-1 (manufactured by KYOKUTO PHARMACEUTICAL INDUSTRIAL CO., LTD), and cryopreserved.
Human iPS cell-derived mesenchymal stem cells were thawed and grown, and seeded in a 96 well plate (manufactured by Corning) in 1×10^5 cells/well. After 24 hours, the culture supernatant was removed, and replaced with a culture medium to induce differentiation to cartilaginous cells in accordance with Document A. To the culture medium to induce differentiation to cartilaginous cells, the garcinia extract and/or the component (B) (components (B1) to (B4)) as test substances were added so that the final concentration was the concentration shown in Tables 1 to 3. No test substance was added to the control group. The cells were cultured for about 10 days, and then fixed with a 4% paraformaldehyde·phosphate buffer (manufactured by FUJIFILM Wako Pure Chemical Corporation). After fixed, the cells were stained with an Alcian blue solution (manufactured by MUTO PURE CHEMICALS CO., LTD.) for 1 hour, and the dye was eluted using a 6 M guanidine hydrochloride solution (manufactured by Tokyo Chemical Industry Co., Ltd.). The eluate was transferred to a 96 well plate, and the OD value of each well at 620 nm was measured with a microplate reader to measure the amount of matrix produced by differentiation-induced cartilaginous cells.

The test system of test [3] is human bone marrow-derived mesenchymal stem cells. The test is described as follows: Cartilage matrix production activity (amount of GAG in pellets). Particulars: FIGS. 1 to 4; pellets after 21 days three-dimensional culture, papain digestion. As for the experimental part: LLC is solubilized in 100 mM phosphate buffer pH 7.4, 5 mM L-cysteine hydrochloride monohydrate, and 10 mM EDTA), and then the amount of GAG (glycosaminoglycan) was measured using a GAG quantification kit (manufactured by Blyscan). The larger the amount of GAG, the larger the amount of cartilage matrix produced. […] The results of the differentiated cartilaginous cell area ratio are shown in Table 12 (a) and Table 12 (b), and the measurement results of the amount of GAG are shown in FIG. 5.

Setting [4] is: Table 12a, Test Example 3: HCA·Ca 25 μM or constituent sugar (B4) 2.5 μM alone.
[5] abbreviates: Table 7: HCA·Ca and/or glucosamine (B4), 21 days, safranin O red area.
The mark [6] stands for this setting: Table 6: garcinia extract and/or glucosamine (B4), 21 days, safranin O red area.

As to `CC(=O)N[C@H]1C(O)O[C@H](COS(=O)(=O)[O-])[C@H](O)[C@@H]1O.[Na+]` (stereo partly drawn) [compound 46, Sodium N-acetyl-D-galactosamine 6-sulfate], the “Differentiated cartilaginous cell area ratio” value in test [1] (setting [4]) amounted to 1.4.

For the molecule `N[C@H]1C(O)O[C@H](CO)[C@@H](O)[C@@H]1O` (stereo partly shown) [compound 10, Glucosamine], the “Ratio of cartilage matrix production” value in test [2] is reported as 1.01.

Regarding `O=C([O-])C[C@@](O)(C(=O)[O-])[C@H](O)C(=O)[O-].O=C([O-])C[C@@](O)(C(=O)[O-])[C@H](O)C(=O)[O-].[Ca+2].[Ca+2].[Ca+2]` [compound 32, (−) Hydroxycitric acid-3 calcium], the “Differentiated cartilaginous cell area ratio” value was 1.7 in test [1] (Table 5: HCA·Ca and/or chondroitin sulfate (B1), 21 days, safranin O red area); 1.7 in test [1] (setting [5]); 3.5 in test [1] (Table 9: HCA·Ca and/or hyaluronic acid (B3), 21 days, safranin O red area); 1.5 in test [1] (Table 11: HCA·Ca and/or proteoglycan (B2), 21 days, safranin O red area).

`N[C@H]1C(O)O[C@H](CO)[C@@H](O)[C@@H]1O` (stereo partly shown) [compound 12, Glucosamine]: the “Ratio of cartilage matrix production” value in test [2] was determined as 1.02.

On to `N[C@H]1C(O)O[C@H](CO)[C@@H](O)[C@@H]1O` (stereo partly shown) [compound 9, Glucosamine], for which, in test [2], the “Ratio of cartilage matrix production” value turned out to be 1.01.

Consider `O=C[C@H](O)[C@@H](O)[C@H](O)[C@H](O)C(=O)O` [compound 43, D-glucuronic acid], for which, in test [1] (setting [4]), the “Differentiated cartilaginous cell area ratio” value is 0.7.

Consider `N[C@H]1C(O)O[C@H](CO)[C@@H](O)[C@@H]1O` (stereo partly shown) [compound 13, Glucosamine], for which, in test [2], the “Ratio of cartilage matrix production” value stood at 1.00.

Turning to Sodium hyaluronate [hyaluronic acid], the “activity to induce differentiation to cartilaginous cells (in words)” value (from here on “activity to induce differentiation”) in test [1] is “almost no activity to induce differentiation to cartilaginous cells”. Also, the “cartilage matrix production activity (amount of GAG, in words)” value (shortened to “cartilage matrix production activity”) in test [3] is on record as “almost no activity to induce differentiation to cartilaginous cells”.

For `N[C@H]1C(O)O[C@H](CO)[C@@H](O)[C@@H]1O` (stereo partly shown) [glucosamine, Glucosamine], in test [1], the “activity to induce differentiation” value was “reduce the activity to induce differentiation to cartilaginous cells”. Further, the “cartilage matrix production activity” value in test [3] is given as “reduce the cartilage matrix production activity”.

As for `CC(=O)N[C@H]1C(O)O[C@H](CO)[C@@H](O)[C@@H]1O` (stereo partly drawn) [compound 41, N-acetyl-D-glucosamine], the “Differentiated cartilaginous cell area ratio” value in test [1] (setting [4]) is 1.8.

For `CC(=O)N[C@H]1C(O)O[C@H](CO)[C@H](O)[C@@H]1O` (stereo partly drawn) [compound 45, N-acetyl-D-galactosamine], in test [1] (setting [4]), the “Differentiated cartilaginous cell area ratio” value stood at 1.

Take `N[C@H]1C(O)O[C@H](CO)[C@@H](O)[C@@H]1O` (stereo partly shown) [compound 6, Glucosamine]: in test [2], the “Ratio of cartilage matrix production” value turned out to be 1.00.

For `N[C@H]1C(O)O[C@H](CO)[C@@H](O)[C@@H]1O` (stereo partly shown) [compound 11, Glucosamine], in test [2], the “Ratio of cartilage matrix production” value is on record as 1.01.

Consider `N[C@H]1C(O)O[C@H](CO)[C@@H](O)[C@@H]1O` (stereo partly shown) [compound 8, Glucosamine], for which the “Ratio of cartilage matrix production” value in test [2] is given as 1.01.

Consider `N[C@H]1C(O)O[C@H](CO)[C@@H](O)[C@@H]1O` (stereo partly shown) [compound 34, Glucosamine], for which the “Differentiated cartilaginous cell area ratio” value in test [1] (setting [6]) and in test [1] (setting [5]) was 0.2 throughout.

`O=C([O-])C[C@@](O)(C(=O)[O-])[C@H](O)C(=O)[O-].O=C([O-])C[C@@](O)(C(=O)[O-])[C@H](O)C(=O)[O-].[Ca+2].[Ca+2].[Ca+2]` [compound 39, (−) Hydroxycitric acid-3 calcium]: the “Differentiated cartilaginous cell area ratio” value in test [1] (setting [4]) is given as 1.8.

Regarding `Cl.N[C@H]1C(O)O[C@H](CO)[C@H](O)[C@@H]1O` (stereo partly drawn) [compound 44, D-(+)-galactosamine hydrochloride], the “Differentiated cartilaginous cell area ratio” value in test [1] (setting [4]) was determined as 0.7.

For the molecule `N[C@H]1C(O)O[C@H](CO)[C@@H](O)[C@@H]1O` (stereo partly shown) [compound 33, Glucosamine], the “Differentiated cartilaginous cell area ratio” value in test [1] (setting [6]) and in test [1] (setting [5]) was 0.1 in each case.

For the molecule `CC(=O)N[C@H]1C(O)O[C@H](COS(=O)(=O)[O-])[C@@H](O)[C@@H]1O.[Na+]` (stereo partly drawn) [compound 42, Sodium N-acetyl-D-glucosamine 6-sulfate], the “Differentiated cartilaginous cell area ratio” value in test [1] (setting [4]) is 2.

Take `N[C@H]1C(O)O[C@H](CO)[C@@H](O)[C@@H]1O` (stereo partly shown) [compound 14, Glucosamine]: the “Ratio of cartilage matrix production” value in test [2] turned out to be 1.00.

In the case of `Cl.N[C@H]1C(O)O[C@H](CO)[C@@H](O)[C@@H]1O` (stereo partly drawn) [compound 40, D-(+)-glucosamine hydrochloride], the “Differentiated cartilaginous cell area ratio” value in test [1] (setting [4]) stood at 0.6.

On to `O=C([O-])C[C@@](O)(C(=O)[O-])[C@H](O)C(=O)[O-].O=C([O-])C[C@@](O)(C(=O)[O-])[C@H](O)C(=O)[O-].[Ca+2].[Ca+2].[Ca+2]` [calcium hydroxycitrate, (−) Hydroxycitric acid-3 calcium], for which the “activity to induce differentiation” value in test [1] is “exhibits an activity to induce differentiation to cartilaginous cells, the degree of which is limited”. In addition, the “cartilage matrix production activity” value in test [3] is listed as “exhibits a cartilage matrix production activity, the degree of which is limited”.

In the case of `N[C@H]1C(O)O[C@H](CO)[C@@H](O)[C@@H]1O` (stereo partly shown) [compound 7, Glucosamine], the “Ratio of cartilage matrix production” value in test [2] was found to be 1.01.

The values are drawn from patent US20260124237A1, “CARTILAGE REGENERATION COMPOSITION” (KOBAYASHI PHARMACEUTICAL CO., LTD., priority 2021, published 2026).
